Key:
Test in all cases: DiscoverX scanEDGE kinase panel
Assay type in all cases: binding
Conditions in all cases: Cmpd Conc 1000 nM, read-out: % Ctrl
PAK4 = target: T1, PAK4 (Homo sapiens, UniProt O96013)
T1 construct: purchased DiscoverX (DiscoveRx) KINOMEscan scanEDGE / KdELECT
Excerpt: (§1) We hypothesized that inhibitors of the normal and flipped modes would display distinct selectivity profiles.
(§2) 1. 16 and 21 kinome selectivity data
(§3) (P – phosphorylated; nP – nonphosphorylated; % Ctrl values show the % of DNAEtagged
(§4) kinase which was not displaced from a solid supported ligand by a test compound relative to
(§5) untreated control, quantified by qPCR).
(§6) Please note: ALKs 1, 2, 3, 4, 5 and 6 are listed by their gene symbols: ACVRL1 (ALK1), ACVR1
(§7) (ALK2), BMPR1A (ALK3), ACVR1B (ALK4), TGFBR1 (ALK5) and BMPR1B (ALK6)
(§8) Cmpd DiscoverX Gene Symbol Entrez Gene Symbol % Ctrl Cmpd Conc (nM)

MAPKAPK2 = target: T2, MAPKAPK2 (Homo sapiens, UniProt P49137)
T2 construct: purchased DiscoverX (DiscoveRx) KINOMEscan scanEDGE / KdELECT
Excerpt: as §1, §2, §3, §4, §5, §6, §7, §8

BMPR2 = target: T3, BMPR2 (Homo sapiens, UniProt Q13873)
T3 construct: purchased DiscoverX (DiscoveRx) KINOMEscan scanEDGE / KdELECT
Excerpt: as §1, §2, §3, §4, §5, §6, §7, §8

VEGFR2 = target: T4, VEGFR2 (Homo sapiens, UniProt P35968)
T4 construct: purchased DiscoverX (DiscoveRx) KINOMEscan scanEDGE / KdELECT
Excerpt: as §1, §2, §3, §4, §5, §6, §7, §8

PKACEalpha = target: T5, PKACEalpha (Homo sapiens, UniProt P17612)
T5 construct: purchased DiscoverX (DiscoveRx) KINOMEscan scanEDGE / KdELECT
Excerpt: as §1, §2, §3, §4, §5, §6, §7, §8

BMPR1A (ALK3) = target: T6, BMPR1A (ALK3) (Homo sapiens, UniProt P36894)
T6 construct: purchased DiscoverX (DiscoveRx) KINOMEscan scanEDGE / KdELECT
Excerpt: as §1, §2, §3, §4, §5, §6, §7, §8

PIK3CG = target: T7, PIK3CG (Homo sapiens, UniProt P48736)
T7 construct: purchased DiscoverX (DiscoveRx) KINOMEscan scanEDGE / KdELECT
Excerpt: as §1, §2, §3, §4, §5, §6, §7, §8

KIT = target: T8, KIT (Homo sapiens, UniProt P10721)
T8 construct: purchased DiscoverX
Excerpt: as §1, §2, §3, §4, §5, §6, §7, §8

ABL1(E255K)EP = target: T9, ABL1(E255K)EP (Homo sapiens, UniProt P00519, E255K)
T9 construct: purchased DiscoverX (DiscoveRx) KINOMEscan scanEDGE / KdELECT
Excerpt: as §1, §2, §3, §4, §5, §6, §7, §8

ABL2 = target: T10, ABL2 (Homo sapiens, UniProt P42684)
T10 construct: purchased DiscoverX (DiscoveRx) KINOMEscan scanEDGE / KdELECT
Excerpt: as §1, §2, §3, §4, §5, §6, §7, §8

ABL1EP = target: T11, ABL1EP (Homo sapiens, UniProt P00519)
T11 construct: purchased DiscoverX (DiscoveRx) KINOMEscan scanEDGE / KdELECT
Excerpt: as §1, §2, §3, §4, §5, §6, §7, §8

PIM3 = target: T12, PIM3 (Homo sapiens, UniProt Q86V86)
T12 construct: purchased DiscoverX (DiscoveRx) KINOMEscan scanEDGE / KdELECT
Excerpt: as §1, §2, §3, §4, §5, §6, §7, §8

MAP3K4 = target: T13, MAP3K4 (Homo sapiens, UniProt Q9Y6R4)
T13 construct: purchased DiscoverX (DiscoveRx) KINOMEscan scanEDGE / KdELECT
Excerpt: as §1, §2, §3, §4, §5, §6, §7, §8

p38Ealpha = target: T14, p38Ealpha (Homo sapiens, UniProt Q16539)
T14 construct: purchased DiscoverX (DiscoveRx) KINOMEscan scanEDGE / KdELECT
Excerpt: as §1, §2, §3, §4, §5, §6, §7, §8

KIT(V559D,T670I) = target: T15, KIT(V559D,T670I) (Homo sapiens, UniProt P10721, T670I/V559D)
T15 construct: purchased DiscoverX (DiscoveRx) KINOMEscan scanEDGE / KdELECT
Excerpt: as §1, §2, §3, §4, §5, §6, §7, §8

BMPR1B (ALK6) = target: T16, BMPR1B (ALK6) (Homo sapiens, UniProt O00238)
T16 construct: purchased DiscoverX (DiscoveRx) KINOMEscan scanEDGE / KdELECT
Excerpt: as §1, §2, §3, §4, §5, §6, §7, §8

AKT1 = target: T17, AKT1 (Homo sapiens, UniProt P31749)
T17 construct: purchased DiscoverX (DiscoveRx) KINOMEscan scanEDGE / KdELECT
Excerpt: as §1, §2, §3, §4, §5, §6, §7, §8

MEK1 = target: T18, MEK1 (Homo sapiens, UniProt Q02750)
T18 construct: purchased DiscoverX (DiscoveRx) KINOMEscan scanEDGE / KdELECT
Excerpt: as §1, §2, §3, §4, §5, §6, §7, §8

ERK1 = target: T19, ERK1 (Homo sapiens, UniProt P27361)
T19 construct: purchased DiscoverX (DiscoveRx) KINOMEscan scanEDGE / KdELECT
Excerpt: as §1, §2, §3, §4, §5, §6, §7, §8

PIK3CA = target: T20, PIK3CA (Homo sapiens, UniProt P42336)
T20 construct: purchased DiscoverX (DiscoveRx) KINOMEscan scanEDGE / KdELECT
Excerpt: as §1, §2, §3, §4, §5, §6, §7, §8

JNK3 = target: T21, JNK3 (Homo sapiens, UniProt P53779)
T21 construct: purchased DiscoverX (DiscoveRx) KINOMEscan scanEDGE / KdELECT
Excerpt: as §1, §2, §3, §4, §5, §6, §7, §8

MKNK2 = target: T22, MKNK2 (Homo sapiens, UniProt Q9HBH9)
T22 construct: purchased DiscoverX (DiscoveRx) KINOMEscan scanEDGE / KdELECT
Excerpt: as §1, §2, §3, §4, §5, §6, §7, §8

JAK2(JH1domain) = target: T23, JAK2(JH1domain) (Homo sapiens, UniProt O60674)
T23 construct: JAK2(JH1domain); purchased DiscoverX (DiscoveRx) KINOMEscan scanEDGE / KdELECT
Excerpt: as §1, §2, §3, §4, §5, §6, §7, §8

PRKCE = target: T24, PRKCE (Homo sapiens, UniProt Q02156)
T24 construct: purchased DiscoverX (DiscoveRx) KINOMEscan scanEDGE / KdELECT
Excerpt: as §1, §2, §3, §4, §5, §6, §7, §8

JNK1 = target: T25, JNK1 (Homo sapiens, UniProt P45983)
T25 construct: purchased DiscoverX (DiscoveRx) KINOMEscan scanEDGE / KdELECT
Excerpt: as §1, §2, §3, §4, §5, §6, §7, §8

PIM2 = target: T26, PIM2 (Homo sapiens, UniProt Q9P1W9)
T26 construct: purchased DiscoverX (DiscoveRx) KINOMEscan scanEDGE / KdELECT
Excerpt: as §1, §2, §3, §4, §5, §6, §7, §8

DYRK1B = target: T27, DYRK1B (Homo sapiens, UniProt Q9Y463)
T27 construct: purchased DiscoverX (DiscoveRx) KINOMEscan scanEDGE / KdELECT
Excerpt: as §1, §2, §3, §4, §5, §6, §7, §8

IKKEbeta = target: T28, IKKEbeta (Homo sapiens, UniProt O14920)
T28 construct: purchased DiscoverX (DiscoveRx) KINOMEscan scanEDGE / KdELECT
Excerpt: as §1, §2, §3, §4, §5, §6, §7, §8

p38Ebeta = target: T29, p38Ebeta (Homo sapiens, UniProt Q15759)
T29 construct: purchased DiscoverX (DiscoveRx) KINOMEscan scanEDGE / KdELECT
Excerpt: as §1, §2, §3, §4, §5, §6, §7, §8

PIK3C2B = target: T30, PIK3C2B (Homo sapiens, UniProt O00750)
T30 construct: purchased DiscoverX (DiscoveRx) KINOMEscan scanEDGE / KdELECT
Excerpt: as §1, §2, §3, §4, §5, §6, §7, §8

FAK = target: T31, FAK (Homo sapiens, UniProt Q05397)
T31 construct: purchased DiscoverX (DiscoveRx) KINOMEscan scanEDGE / KdELECT
Excerpt: as §1, §2, §3, §4, §5, §6, §7, §8

MET = target: T32, MET (Homo sapiens, UniProt P08581)
T32 construct: purchased DiscoverX (DiscoveRx) KINOMEscan scanEDGE / KdELECT
Excerpt: as §1, §2, §3, §4, §5, §6, §7, §8

INSR = target: T33, INSR (Homo sapiens, UniProt P06213)
T33 construct: purchased DiscoverX (DiscoveRx) KINOMEscan scanEDGE / KdELECT
Excerpt: as §1, §2, §3, §4, §5, §6, §7, §8

ACVR2A = target: T34, ACVR2A (Homo sapiens, UniProt P27037)
T34 construct: purchased DiscoverX (DiscoveRx) KINOMEscan scanEDGE / KdELECT
Excerpt: as §1, §2, §3, §4, §5, §6, §7, §8

EPHA2 = target: T35, EPHA2 (Homo sapiens, UniProt P29317)
T35 construct: purchased DiscoverX (DiscoveRx) KINOMEscan scanEDGE / KdELECT
Excerpt: as §1, §2, §3, §4, §5, §6, §7, §8

PAK2 = target: T36, PAK2 (Homo sapiens, UniProt Q13177)
T36 construct: purchased DiscoverX (DiscoveRx) KINOMEscan scanEDGE / KdELECT
Excerpt: as §1, §2, §3, §4, §5, §6, §7, §8

RIPK2 = target: T37, RIPK2 (Homo sapiens, UniProt O43353)
T37 construct: purchased DiscoverX (DiscoveRx) KINOMEscan scanEDGE / KdELECT
Excerpt: as §1, §2, §3, §4, §5, §6, §7, §8

LCK = target: T38, LCK (Homo sapiens, UniProt P06239)
T38 construct: purchased DiscoverX (DiscoveRx) KINOMEscan scanEDGE / KdELECT
Excerpt: as §1, §2, §3, §4, §5, §6, §7, §8

DCAMKL1 = target: T39, DCAMKL1 (Homo sapiens, UniProt O15075)
T39 construct: purchased DiscoverX (DiscoveRx) KINOMEscan scanEDGE / KdELECT
Excerpt: as §1, §2, §3, §4, §5, §6, §7, §8

T25 sequence (P45983 whole entry): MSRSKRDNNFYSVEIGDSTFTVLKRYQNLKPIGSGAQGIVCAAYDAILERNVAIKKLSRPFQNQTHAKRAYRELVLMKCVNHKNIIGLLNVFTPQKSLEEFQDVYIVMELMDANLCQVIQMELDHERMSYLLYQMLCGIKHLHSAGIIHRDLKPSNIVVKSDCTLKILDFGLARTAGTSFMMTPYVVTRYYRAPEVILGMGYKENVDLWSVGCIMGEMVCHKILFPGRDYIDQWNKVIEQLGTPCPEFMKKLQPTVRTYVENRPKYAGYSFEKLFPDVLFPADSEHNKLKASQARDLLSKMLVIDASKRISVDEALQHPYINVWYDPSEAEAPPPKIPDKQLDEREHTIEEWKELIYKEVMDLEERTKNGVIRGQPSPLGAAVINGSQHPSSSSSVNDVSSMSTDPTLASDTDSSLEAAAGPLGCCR
T8 sequence (P10721 26-976): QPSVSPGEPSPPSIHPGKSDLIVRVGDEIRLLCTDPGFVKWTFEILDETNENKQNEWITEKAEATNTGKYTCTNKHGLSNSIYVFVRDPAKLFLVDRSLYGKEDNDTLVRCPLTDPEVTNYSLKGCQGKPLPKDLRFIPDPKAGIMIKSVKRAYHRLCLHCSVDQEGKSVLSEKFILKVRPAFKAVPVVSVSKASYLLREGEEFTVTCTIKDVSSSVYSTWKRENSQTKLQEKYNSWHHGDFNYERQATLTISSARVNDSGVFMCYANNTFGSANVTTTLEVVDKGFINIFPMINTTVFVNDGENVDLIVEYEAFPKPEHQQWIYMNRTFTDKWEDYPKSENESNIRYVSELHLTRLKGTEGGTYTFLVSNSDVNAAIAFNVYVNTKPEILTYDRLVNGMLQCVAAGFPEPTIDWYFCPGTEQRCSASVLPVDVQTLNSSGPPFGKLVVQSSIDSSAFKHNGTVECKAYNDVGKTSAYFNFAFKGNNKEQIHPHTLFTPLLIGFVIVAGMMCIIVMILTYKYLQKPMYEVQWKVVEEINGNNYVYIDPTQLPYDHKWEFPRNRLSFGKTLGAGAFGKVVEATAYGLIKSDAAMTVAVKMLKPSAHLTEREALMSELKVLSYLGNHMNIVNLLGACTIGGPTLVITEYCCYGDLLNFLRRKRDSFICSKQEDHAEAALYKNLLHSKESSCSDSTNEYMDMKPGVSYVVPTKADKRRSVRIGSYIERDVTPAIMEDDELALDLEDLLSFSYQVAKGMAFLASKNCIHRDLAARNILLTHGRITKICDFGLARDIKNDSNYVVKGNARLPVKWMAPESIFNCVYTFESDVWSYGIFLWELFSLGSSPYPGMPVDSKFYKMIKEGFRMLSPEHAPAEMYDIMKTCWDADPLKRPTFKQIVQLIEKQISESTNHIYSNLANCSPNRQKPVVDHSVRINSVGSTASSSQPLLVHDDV
T13 sequence (Q9Y6R4 whole entry): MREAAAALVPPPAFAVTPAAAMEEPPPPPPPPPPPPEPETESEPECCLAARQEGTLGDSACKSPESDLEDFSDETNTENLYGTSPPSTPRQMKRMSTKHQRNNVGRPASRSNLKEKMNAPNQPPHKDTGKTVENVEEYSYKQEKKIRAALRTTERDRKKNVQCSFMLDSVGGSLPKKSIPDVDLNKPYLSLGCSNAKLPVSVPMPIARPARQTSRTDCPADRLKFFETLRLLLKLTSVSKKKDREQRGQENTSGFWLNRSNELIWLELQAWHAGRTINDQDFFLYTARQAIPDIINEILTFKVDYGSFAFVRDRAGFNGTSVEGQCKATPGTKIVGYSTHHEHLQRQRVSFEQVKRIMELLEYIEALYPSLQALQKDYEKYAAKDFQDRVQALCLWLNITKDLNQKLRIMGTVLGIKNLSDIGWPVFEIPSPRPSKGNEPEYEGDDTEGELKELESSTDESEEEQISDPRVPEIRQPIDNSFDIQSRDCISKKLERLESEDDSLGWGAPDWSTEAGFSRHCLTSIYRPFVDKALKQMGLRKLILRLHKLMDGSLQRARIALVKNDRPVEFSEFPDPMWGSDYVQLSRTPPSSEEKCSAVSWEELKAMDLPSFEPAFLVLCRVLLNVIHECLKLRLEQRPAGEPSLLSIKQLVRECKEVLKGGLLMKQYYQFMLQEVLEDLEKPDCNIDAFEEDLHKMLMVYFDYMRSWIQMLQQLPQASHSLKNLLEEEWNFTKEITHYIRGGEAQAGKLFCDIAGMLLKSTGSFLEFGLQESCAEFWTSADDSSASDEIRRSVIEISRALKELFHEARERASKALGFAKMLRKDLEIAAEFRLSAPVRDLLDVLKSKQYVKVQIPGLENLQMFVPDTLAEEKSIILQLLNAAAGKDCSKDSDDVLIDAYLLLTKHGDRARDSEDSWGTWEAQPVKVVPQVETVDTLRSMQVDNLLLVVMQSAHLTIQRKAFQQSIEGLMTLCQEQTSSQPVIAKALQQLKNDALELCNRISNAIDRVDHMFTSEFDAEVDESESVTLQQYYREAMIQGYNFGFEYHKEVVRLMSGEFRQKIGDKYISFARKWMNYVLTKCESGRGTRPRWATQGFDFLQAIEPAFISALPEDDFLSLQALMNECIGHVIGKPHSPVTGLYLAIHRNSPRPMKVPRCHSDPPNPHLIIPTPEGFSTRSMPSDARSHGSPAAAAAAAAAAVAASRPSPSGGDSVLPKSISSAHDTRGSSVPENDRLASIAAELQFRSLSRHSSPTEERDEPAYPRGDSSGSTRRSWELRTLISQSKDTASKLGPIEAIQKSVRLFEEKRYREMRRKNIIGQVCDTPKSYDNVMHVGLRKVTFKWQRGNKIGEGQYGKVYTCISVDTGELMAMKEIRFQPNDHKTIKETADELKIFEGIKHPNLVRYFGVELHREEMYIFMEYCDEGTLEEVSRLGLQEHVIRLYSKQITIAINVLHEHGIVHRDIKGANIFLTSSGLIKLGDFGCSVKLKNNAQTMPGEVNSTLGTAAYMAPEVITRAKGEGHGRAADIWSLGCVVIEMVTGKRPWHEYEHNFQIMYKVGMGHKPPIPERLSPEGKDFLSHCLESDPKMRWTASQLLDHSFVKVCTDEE
T35 sequence (P29317 24-976): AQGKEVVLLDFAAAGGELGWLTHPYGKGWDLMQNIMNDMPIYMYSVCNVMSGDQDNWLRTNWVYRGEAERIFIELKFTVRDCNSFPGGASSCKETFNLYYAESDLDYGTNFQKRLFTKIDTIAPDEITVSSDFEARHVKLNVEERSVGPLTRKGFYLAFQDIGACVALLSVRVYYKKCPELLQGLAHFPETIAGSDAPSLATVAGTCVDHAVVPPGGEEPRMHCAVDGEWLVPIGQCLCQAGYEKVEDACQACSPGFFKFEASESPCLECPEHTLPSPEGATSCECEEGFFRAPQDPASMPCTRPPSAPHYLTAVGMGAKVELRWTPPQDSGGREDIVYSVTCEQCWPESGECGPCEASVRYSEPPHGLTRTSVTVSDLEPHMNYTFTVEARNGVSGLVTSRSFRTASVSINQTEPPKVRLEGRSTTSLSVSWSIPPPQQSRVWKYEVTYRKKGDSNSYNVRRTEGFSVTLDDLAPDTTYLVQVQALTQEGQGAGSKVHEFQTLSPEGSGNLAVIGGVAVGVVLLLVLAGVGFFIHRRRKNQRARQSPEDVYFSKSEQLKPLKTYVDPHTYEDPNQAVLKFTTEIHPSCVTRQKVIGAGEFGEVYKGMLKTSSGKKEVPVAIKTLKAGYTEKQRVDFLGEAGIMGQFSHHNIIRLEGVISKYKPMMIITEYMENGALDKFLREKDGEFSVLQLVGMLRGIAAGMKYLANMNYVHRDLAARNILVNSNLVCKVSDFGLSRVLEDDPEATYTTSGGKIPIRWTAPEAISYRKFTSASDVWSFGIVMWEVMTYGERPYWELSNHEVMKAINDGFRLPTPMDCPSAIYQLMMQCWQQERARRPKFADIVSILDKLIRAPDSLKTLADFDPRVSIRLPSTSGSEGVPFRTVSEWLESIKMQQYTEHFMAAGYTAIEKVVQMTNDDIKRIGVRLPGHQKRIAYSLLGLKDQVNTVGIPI
T26 sequence (Q9P1W9 whole entry): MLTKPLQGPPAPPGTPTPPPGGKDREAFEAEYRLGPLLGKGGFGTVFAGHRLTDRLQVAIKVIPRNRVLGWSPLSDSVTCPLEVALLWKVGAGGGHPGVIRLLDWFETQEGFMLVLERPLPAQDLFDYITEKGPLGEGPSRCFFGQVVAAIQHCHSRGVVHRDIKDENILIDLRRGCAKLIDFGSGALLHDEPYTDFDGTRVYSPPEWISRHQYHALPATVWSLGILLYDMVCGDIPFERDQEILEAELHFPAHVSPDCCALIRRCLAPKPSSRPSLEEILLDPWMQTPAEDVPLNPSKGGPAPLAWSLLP
T36 sequence (Q13177 whole entry): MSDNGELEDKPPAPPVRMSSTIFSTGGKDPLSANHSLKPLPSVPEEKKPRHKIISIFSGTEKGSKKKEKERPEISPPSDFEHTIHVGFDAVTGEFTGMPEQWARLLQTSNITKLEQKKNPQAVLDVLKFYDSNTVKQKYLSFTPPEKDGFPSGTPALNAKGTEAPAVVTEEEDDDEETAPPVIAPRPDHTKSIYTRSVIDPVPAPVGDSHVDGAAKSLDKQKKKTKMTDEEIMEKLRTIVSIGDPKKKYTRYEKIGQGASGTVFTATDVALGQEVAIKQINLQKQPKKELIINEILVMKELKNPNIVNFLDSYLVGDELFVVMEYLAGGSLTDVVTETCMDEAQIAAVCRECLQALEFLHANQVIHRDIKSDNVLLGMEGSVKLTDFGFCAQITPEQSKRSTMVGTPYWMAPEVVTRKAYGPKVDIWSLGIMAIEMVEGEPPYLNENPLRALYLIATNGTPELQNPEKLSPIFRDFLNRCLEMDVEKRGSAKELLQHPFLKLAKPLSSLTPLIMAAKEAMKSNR
T15 sequence (P10721 26-976 V559D/T670I): as the sequence (P10721 26-976) above, with V534D, T645I counted along it

## Cc1nc2ccc(-c3ccnc4ccccc34)c(C)c2c(=O)[nH]1 [compound 21, 2,5-Dimethyl-6-(quinolin-4-yl)quinazolin-4(3H)-one]
PAK4
  remaining binding at 1 µM: 62%
MAPKAPK2
  remaining binding at 1 µM: 100%
BMPR2
  remaining binding at 1 µM: 76%
VEGFR2
  remaining binding at 1 µM: 99%
PKACEalpha
  remaining binding at 1 µM: 100%
BMPR1A (ALK3)
  remaining binding at 1 µM: 65%
PIK3CG
  remaining binding at 1 µM: 98%
KIT
  remaining binding at 1 µM: 97%
ABL1(E255K)EP
  remaining binding at 1 µM: 95%
ABL2
  remaining binding at 1 µM: 93%
ABL1EP
  remaining binding at 1 µM: 97%
PIM3
  remaining binding at 1 µM: 98%
MAP3K4
  remaining binding at 1 µM: 90%
p38Ealpha
  remaining binding at 1 µM: 90%
KIT(V559D,T670I)
  remaining binding at 1 µM: 98%
BMPR1B (ALK6)
  remaining binding at 1 µM: 1.6%
AKT1
  remaining binding at 1 µM: 100%
MEK1
  remaining binding at 1 µM: 85%
ERK1
  remaining binding at 1 µM: 98%
PIK3CA
  remaining binding at 1 µM: 100%
JNK3
  remaining binding at 1 µM: 79%
MKNK2
  remaining binding at 1 µM: 92%
JAK2(JH1domain)
  remaining binding at 1 µM: 75%
PRKCE
  remaining binding at 1 µM: 91%
JNK1
  remaining binding at 1 µM: 91%
PIM2
  remaining binding at 1 µM: 96%
DYRK1B
  remaining binding at 1 µM: 92%
IKKEbeta
  remaining binding at 1 µM: 95%
p38Ebeta
  remaining binding at 1 µM: 99%
PIK3C2B
  remaining binding at 1 µM: 98%
FAK
  remaining binding at 1 µM: 98%
MET
  remaining binding at 1 µM: 88%
INSR
  remaining binding at 1 µM: 93%
ACVR2A
  remaining binding at 1 µM: 83%
EPHA2
  remaining binding at 1 µM: 100%
PAK2
  remaining binding at 1 µM: 77%
RIPK2
  remaining binding at 1 µM: 68%
LCK
  remaining binding at 1 µM: 96%
DCAMKL1
  remaining binding at 1 µM: 87%

— paper PMC6109843, “Novel Quinazolinone Inhibitors of ALK2 Flip between Alternate Binding Modes: Structure–Activity Relationship, Structural Characterization, Kinase Profiling, and Cellular Proof of Concept” (Journal of Medicinal Chemistry, 2018)
